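Test compounds were applied to cells in 96-well plates for 48 hours at 5 doses. GI50 marks 50% less growth.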 Activity calls are given as the source filed them. Rule as the data show it: active = GI50 up to about 1.1 µM and inactive = higher.
Experiments:
Assay in all cases: DTP human tumour cell line panel, 48 h
OVCAR-3 = test system: OVCAR-3
OVCAR-8 = test system: OVCAR-8
SNB-19 = test system: SNB-19
NCI-H226 = test system: NCI-H226
NCI/ADR-RES = test system: NCI/ADR-RES
HCT-116 = test system: HCT-116
NCI-H522 = test system: NCI-H522
COLO 205 = test system: COLO 205
SF-295 = test system: SF-295
UACC-62 = test system: UACC-62
OVCAR-4 = test system: OVCAR-4
RPMI-8226 = test system: RPMI-8226
RXF 393 = test system: RXF 393
HCC 2998 = test system: HCC 2998
786-0 = test system: 786-0
MOLT-4 = test system: MOLT-4
SF-268 = test system: SF-268
MDA-MB-231 = test system: MDA-MB-231
A498 = test system: A498
Malme-3M = test system: Malme-3M
K562 = test system: K562
MCF7 = test system: MCF7
HL-60 = test system: HL-60
SK-MEL-2 = test system: SK-MEL-2
EKVX = test system: EKVX
HOP-62 = test system: HOP-62
SK-OV-3 = test system: SK-OV-3
U-251 = test system: U-251
SK-MEL-5 = test system: SK-MEL-5
TK-10 = test system: TK-10
ACHN = test system: ACHN
SR = test system: SR
SN12C = test system: SN12C
Hs-578T = test system: Hs-578T
OVCAR-5 = test system: OVCAR-5
NCI-H460 = test system: NCI-H460
MDA-MB-435 = test system: MDA-MB-435
T47D = test system: T47D
BT-549 = test system: BT-549
A549 = test system: A549
M14 = test system: M14
LOX IMVI = test system: LOX IMVI
MDA-N = test system: MDA-N
CCRF-CEM = test system: CCRF-CEM
PC-3 = test system: PC-3
NCI-H23 = test system: NCI-H23
IGROV-1 = test system: IGROV-1
SF-539 = test system: SF-539
KM12 = test system: KM12
UO-31 = test system: UO-31
SK-MEL-28 = test system: SK-MEL-28
SW-620 = test system: SW-620
CAKI-1 = test system: CAKI-1
HT-29 = test system: HT-29
HOP-92 = test system: HOP-92
UACC-257 = test system: UACC-257
HCT-15 = test system: HCT-15
DU-145 = test system: DU-145
SNB-75 = test system: SNB-75
KM-20L2 = test system: KM-20L2
SNB-78 = test system: SNB-78
DMS-114 = test system: DMS-114

Measured: GI50

C#C[C@]1(O)CC[C@H]2[C@@H]3CCC4=C/C(=N\OCCN5CCCC5)CC[C@]4(C)[C@H]3CC[C@@]21C
13.2 µM: HCT-15
inactive: OVCAR-3 10.9 µM | OVCAR-8 17.1 µM | SNB-19 15.3 µM | NCI-H226 20.6 µM | NCI/ADR-RES 9.95 µM | HCT-116 8.36 µM | NCI-H522 3.57 µM | COLO 205 13.7 µM | SF-295 3.72 µM | UACC-62 10.4 µM | OVCAR-4 20.6 µM | RPMI-8226 3.34 µM | RXF 393 13.5 µM | HCC 2998 16.6 µM | 786-0 7.11 µM | MOLT-4 6.14 µM | SF-268 13.5 µM | MDA-MB-231 19.2 µM | A498 18.7 µM | Malme-3M 10.8 µM | K562 5.12 µM | MCF7 4.72 µM | HL-60 5.35 µM | SK-MEL-2 9.18 µM | EKVX 12.9 µM | HOP-62 10.9 µM | SK-OV-3 19.5 µM | U-251 17.3 µM | SK-MEL-5 3.67 µM | TK-10 17.1 µM | ACHN 17 µM | SR 2.96 µM | SN12C 16.7 µM | Hs-578T 6.25 µM | OVCAR-5 19.2 µM | NCI-H460 17.7 µM | MDA-MB-435 3 µM | T47D 16.1 µM | BT-549 16.3 µM | A549 15.7 µM | M14 9.82 µM | LOX IMVI 11.5 µM | MDA-N 3.25 µM | CCRF-CEM 14.6 µM | PC-3 6.28 µM | NCI-H23 12 µM | IGROV-1 4.79 µM | SF-539 7.46 µM | KM12 5.36 µM | UO-31 15.7 µM | SK-MEL-28 14.9 µM | SW-620 13.5 µM | CAKI-1 12.4 µM | HT-29 12.7 µM | HOP-92 29.1 µM | UACC-257 8.13 µM | DU-145 19 µM | SNB-75 10.8 µM

COC1CCCCN1C(=O)c1ccccc1 (configuration not stated)
> 25.3 µM: HCT-15
inactive: OVCAR-3 > 25.3 µM | SNB-19 > 25.3 µM | NCI-H226 > 25.3 µM | HCT-116 > 25.3 µM | UACC-62 > 25.3 µM | OVCAR-4 > 25.3 µM | RXF 393 > 25.3 µM | HCC 2998 > 25.3 µM | 786-0 > 25.3 µM | MOLT-4 > 25.3 µM | SF-268 > 25.3 µM | Malme-3M > 25.3 µM | K562 > 25.3 µM | HL-60 > 25.3 µM | KM-20L2 > 25.3 µM | SK-MEL-2 > 25.3 µM | SNB-78 > 25.3 µM | SK-OV-3 > 25.3 µM | U-251 > 25.3 µM | SK-MEL-5 > 25.3 µM | TK-10 > 25.3 µM | ACHN > 25.3 µM | SR > 25.3 µM | SN12C > 25.3 µM | OVCAR-5 > 25.3 µM | A549 > 25.3 µM | M14 > 25.3 µM | DMS-114 > 25.3 µM | LOX IMVI > 25.3 µM | NCI-H23 > 25.3 µM | IGROV-1 > 25.3 µM | KM12 > 25.3 µM | UO-31 > 25.3 µM | SK-MEL-28 > 25.3 µM | SW-620 > 25.3 µM | CAKI-1 > 25.3 µM | HOP-92 > 25.3 µM | SNB-75 > 25.3 µM

CN(C)CC1CCCc2ccccc2C1=O (configuration not stated)
inactive: OVCAR-3 1.82 µM | OVCAR-8 2.13 µM | SNB-19 13 µM | NCI-H226 21.8 µM | NCI/ADR-RES 3.32 µM | HCT-116 1.85 µM | COLO 205 5.14 µM | SF-295 17.3 µM | UACC-62 2.31 µM | RXF 393 6.55 µM | HCC 2998 6.31 µM | 786-0 1.47 µM | SF-268 2.21 µM | MDA-MB-231 5.07 µM | A498 19.5 µM | Malme-3M 1.77 µM | HL-60 2.66 µM | SK-MEL-2 2.02 µM | EKVX 1.85 µM | HOP-62 16.6 µM | SK-OV-3 18.3 µM | U-251 1.6 µM | SK-MEL-5 4.4 µM | TK-10 3.83 µM | ACHN 1.75 µM | SN12C 7.4 µM | Hs-578T 3.93 µM | OVCAR-5 17.5 µM | NCI-H460 19.6 µM | T47D 7.73 µM | BT-549 5.06 µM | A549 20.3 µM | M14 1.85 µM | LOX IMVI 2.16 µM | MDA-N 1.58 µM | PC-3 1.57 µM | NCI-H23 6.41 µM | IGROV-1 2.06 µM | SF-539 4.79 µM | KM12 1.98 µM | UO-31 1.9 µM | SK-MEL-28 6.03 µM | CAKI-1 1.93 µM | HT-29 1.82 µM | HOP-92 16 µM | UACC-257 6.1 µM | DU-145 6.1 µM | SNB-75 41.8 µM
1.79 µM: HCT-15
active: NCI-H522 0.16 µM | OVCAR-4 0.839 µM | RPMI-8226 0.0267 µM | MOLT-4 0.269 µM | K562 0.323 µM | MCF7 0.231 µM | SR 0.271 µM | MDA-MB-435 0.897 µM | CCRF-CEM 0.107 µM | SW-620 0.54 µM
